# ChEMBL document CHEMBL1201862, “PubChem BioAssay data set” (2004)
# Calls of active or inactive are those of the source.
# Experiments:
# cells [1] = format: functional, cell-based
# cells [2] = format: functional, cell-based; remark: listed apart in the source
# Cytochrome P450 3A4 = Cytochrome P450 3A4 (Homo sapiens, UniProt P08684); conditions: Potency;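 note: confirmatory qHTS run detecting inhibitors and substrates of CYP3A4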
# Leucine aminopeptidase = target: T1, Leucine aminopeptidase (Plasmodium falciparum 3D7, UniProt Q8IL11); test: P. falciparum M17LAP inhibitors, primary screen, biochemical, fluorogenic H-Leu-NHMec substrate, 1536-well (AID 1619); format: functional
# T1 sequence (Q8IL11 whole entry): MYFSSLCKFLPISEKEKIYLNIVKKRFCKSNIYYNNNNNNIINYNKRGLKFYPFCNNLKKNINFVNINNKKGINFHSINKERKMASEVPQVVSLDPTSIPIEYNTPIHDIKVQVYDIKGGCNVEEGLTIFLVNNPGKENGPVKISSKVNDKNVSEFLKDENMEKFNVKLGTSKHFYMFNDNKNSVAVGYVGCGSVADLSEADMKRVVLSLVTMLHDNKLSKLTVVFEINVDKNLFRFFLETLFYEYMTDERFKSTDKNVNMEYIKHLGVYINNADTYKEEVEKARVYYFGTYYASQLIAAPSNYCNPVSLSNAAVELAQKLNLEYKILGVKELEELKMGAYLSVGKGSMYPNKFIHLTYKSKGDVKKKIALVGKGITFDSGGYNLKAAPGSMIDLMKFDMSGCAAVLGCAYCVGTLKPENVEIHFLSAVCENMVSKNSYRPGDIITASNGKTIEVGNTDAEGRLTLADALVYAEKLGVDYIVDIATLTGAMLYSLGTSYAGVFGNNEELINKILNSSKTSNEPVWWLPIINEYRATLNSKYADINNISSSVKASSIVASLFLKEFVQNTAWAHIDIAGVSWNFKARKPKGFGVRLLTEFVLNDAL
# [3] = target: T2, Trace amine-associated receptor 1 (Homo sapiens, UniProt Q96RJ0); test: Counterscreen for agonists of the human trace amine associated receptor 1 (hTAAR1): Fluorescence-based cell-based high throughput dose response assay to identify hTAAR1 agonist that also desensitize TAAR1 receptor response.; format: functional
# T2 sequence (Q96RJ0 whole entry): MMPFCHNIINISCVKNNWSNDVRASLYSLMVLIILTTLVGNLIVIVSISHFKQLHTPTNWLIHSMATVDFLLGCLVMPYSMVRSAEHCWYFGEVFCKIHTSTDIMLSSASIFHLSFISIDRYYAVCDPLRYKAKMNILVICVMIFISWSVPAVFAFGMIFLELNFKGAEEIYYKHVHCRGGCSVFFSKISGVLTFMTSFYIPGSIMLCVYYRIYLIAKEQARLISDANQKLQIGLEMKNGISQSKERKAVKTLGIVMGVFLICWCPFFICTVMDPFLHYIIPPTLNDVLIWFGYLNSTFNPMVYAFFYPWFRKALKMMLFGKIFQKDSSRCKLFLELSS
# [4] = target: T2, Trace amine-associated receptor 1; test: Fluorescence-based cell-based high throughput dose response assay to identify agonists of the human trace amine associated receptor 1 (TAAR1).; format: functional
# [5] = target: T3, Mannose-6-phosphate isomerase (Homo sapiens, UniProt P34949); test: MPI inhibition at elevated mannose 6-phosphate – biochemical, fluorescence intensity, high mannose 6-phosphate, primary screen (AID 1220)
# T3 sequence (P34949 whole entry): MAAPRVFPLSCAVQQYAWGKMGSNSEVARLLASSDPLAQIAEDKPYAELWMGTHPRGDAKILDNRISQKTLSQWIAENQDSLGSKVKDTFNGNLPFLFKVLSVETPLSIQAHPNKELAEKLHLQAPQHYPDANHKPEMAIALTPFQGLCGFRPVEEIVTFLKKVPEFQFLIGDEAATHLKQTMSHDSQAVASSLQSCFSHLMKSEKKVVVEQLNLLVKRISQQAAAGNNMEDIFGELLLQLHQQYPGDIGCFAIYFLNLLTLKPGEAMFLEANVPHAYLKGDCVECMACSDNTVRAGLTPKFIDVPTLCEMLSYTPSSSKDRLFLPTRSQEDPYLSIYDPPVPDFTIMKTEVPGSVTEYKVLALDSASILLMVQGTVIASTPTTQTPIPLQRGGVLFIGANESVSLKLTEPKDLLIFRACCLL
# [6] = target: T4, Ubiquitin-conjugating enzyme E2 N (Homo sapiens, UniProt P61088); format: functional;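 note: Dose-response confirmation in a TR-FRET assay detecting UBC13-driven polyubiquitin chain formation, inhibition measured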
# T4 sequence (P61088 whole entry): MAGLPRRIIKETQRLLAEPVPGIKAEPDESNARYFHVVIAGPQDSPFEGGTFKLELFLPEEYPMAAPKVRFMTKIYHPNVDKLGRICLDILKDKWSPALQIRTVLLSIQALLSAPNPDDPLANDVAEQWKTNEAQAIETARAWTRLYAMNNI
# cells [7] = format: functional, cell-based; remark: listed apart in the source
# cells [8] = format: functional, cell-based; remark: listed apart in the source
# [9] = target: T5, Replicative DNA helicase DnaB (Mycobacterium tuberculosis, UniProt P9WMR3); test: DnaB intein splicing inhibitors, dose response, biochemical, cell-free fluorescence (AID 449749); format: functional
# T5 sequence (P9WMR3 whole entry): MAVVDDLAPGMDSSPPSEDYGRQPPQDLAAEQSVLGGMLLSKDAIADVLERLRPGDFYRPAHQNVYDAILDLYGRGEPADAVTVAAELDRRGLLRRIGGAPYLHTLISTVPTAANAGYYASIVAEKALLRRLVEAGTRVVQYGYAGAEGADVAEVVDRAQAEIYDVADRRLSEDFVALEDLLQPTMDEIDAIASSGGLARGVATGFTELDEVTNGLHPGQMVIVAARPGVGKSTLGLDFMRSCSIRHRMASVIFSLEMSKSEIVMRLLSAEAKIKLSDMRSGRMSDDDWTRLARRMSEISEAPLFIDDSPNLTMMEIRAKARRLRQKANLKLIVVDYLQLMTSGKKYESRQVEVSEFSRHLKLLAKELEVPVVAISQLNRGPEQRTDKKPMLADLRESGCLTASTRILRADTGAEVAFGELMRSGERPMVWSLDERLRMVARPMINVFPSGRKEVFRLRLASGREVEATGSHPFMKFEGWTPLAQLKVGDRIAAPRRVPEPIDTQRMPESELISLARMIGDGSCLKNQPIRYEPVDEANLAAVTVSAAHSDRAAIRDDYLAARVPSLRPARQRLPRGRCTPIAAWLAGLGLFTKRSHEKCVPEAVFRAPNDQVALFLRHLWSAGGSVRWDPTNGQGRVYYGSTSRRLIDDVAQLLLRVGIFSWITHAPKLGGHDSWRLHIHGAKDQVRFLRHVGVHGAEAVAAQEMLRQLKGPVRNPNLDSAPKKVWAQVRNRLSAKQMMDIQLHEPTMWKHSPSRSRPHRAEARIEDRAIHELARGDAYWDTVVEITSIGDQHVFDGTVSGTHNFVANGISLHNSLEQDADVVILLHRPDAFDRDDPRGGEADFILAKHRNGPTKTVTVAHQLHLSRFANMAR
# Protein RecA = target: T6, Protein RecA (Mycobacterium tuberculosis, UniProt P9WHJ3); test: Fluorescence Cell-Free Homogeneous Dose Retest to Identify Inhibitors of RecA-Intein Splicing Activity. [Related pubchem assays (depositor defined):AID2097, AID2223, AID489010, AID492950]; format: functional
# T6 sequence (P9WHJ3 whole entry): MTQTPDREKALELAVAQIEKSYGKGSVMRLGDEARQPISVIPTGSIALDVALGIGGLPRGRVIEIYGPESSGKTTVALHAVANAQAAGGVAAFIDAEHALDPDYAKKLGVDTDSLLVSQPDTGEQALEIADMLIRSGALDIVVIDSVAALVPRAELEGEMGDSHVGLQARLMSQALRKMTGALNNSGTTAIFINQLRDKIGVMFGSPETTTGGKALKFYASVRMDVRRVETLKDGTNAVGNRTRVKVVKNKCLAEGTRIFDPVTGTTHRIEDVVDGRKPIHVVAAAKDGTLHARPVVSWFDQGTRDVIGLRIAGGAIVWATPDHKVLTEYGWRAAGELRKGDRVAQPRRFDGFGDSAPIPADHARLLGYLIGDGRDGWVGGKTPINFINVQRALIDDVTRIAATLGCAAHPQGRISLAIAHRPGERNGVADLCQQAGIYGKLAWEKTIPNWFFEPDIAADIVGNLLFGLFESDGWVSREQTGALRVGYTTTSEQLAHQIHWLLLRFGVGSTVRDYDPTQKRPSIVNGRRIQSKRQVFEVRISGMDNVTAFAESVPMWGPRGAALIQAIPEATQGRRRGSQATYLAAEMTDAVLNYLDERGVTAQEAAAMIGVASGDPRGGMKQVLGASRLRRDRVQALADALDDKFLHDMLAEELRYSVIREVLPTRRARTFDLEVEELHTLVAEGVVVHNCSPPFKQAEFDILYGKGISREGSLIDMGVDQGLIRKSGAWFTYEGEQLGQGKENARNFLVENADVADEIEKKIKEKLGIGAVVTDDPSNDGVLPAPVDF
# H9c2 = test: cells; format: functional, cell-based; conditions: Rattus norvegicus, H9c2, Myocardium;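 note: confirmatory concentration-response retest of ultra-high-throughput screening hits for modulation of myocardial damage; cell death induced by hydrogen peroxide oxidative stress; compound pretreatment for 60 min then peroxide exposure for 2 h; potency is for protecting the cells against peroxide damage rather than for killing them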
# Genome polyprotein = Genome polyprotein (dengue virus type 2, UniProt P29990); test: flavivirus cap methylation enzyme inhibition – biochemical, confirmation dose response, primary screen (AID 588689); format: functional
# Chain of Genome polyprotein (P29990 2492-3391 limits assumed): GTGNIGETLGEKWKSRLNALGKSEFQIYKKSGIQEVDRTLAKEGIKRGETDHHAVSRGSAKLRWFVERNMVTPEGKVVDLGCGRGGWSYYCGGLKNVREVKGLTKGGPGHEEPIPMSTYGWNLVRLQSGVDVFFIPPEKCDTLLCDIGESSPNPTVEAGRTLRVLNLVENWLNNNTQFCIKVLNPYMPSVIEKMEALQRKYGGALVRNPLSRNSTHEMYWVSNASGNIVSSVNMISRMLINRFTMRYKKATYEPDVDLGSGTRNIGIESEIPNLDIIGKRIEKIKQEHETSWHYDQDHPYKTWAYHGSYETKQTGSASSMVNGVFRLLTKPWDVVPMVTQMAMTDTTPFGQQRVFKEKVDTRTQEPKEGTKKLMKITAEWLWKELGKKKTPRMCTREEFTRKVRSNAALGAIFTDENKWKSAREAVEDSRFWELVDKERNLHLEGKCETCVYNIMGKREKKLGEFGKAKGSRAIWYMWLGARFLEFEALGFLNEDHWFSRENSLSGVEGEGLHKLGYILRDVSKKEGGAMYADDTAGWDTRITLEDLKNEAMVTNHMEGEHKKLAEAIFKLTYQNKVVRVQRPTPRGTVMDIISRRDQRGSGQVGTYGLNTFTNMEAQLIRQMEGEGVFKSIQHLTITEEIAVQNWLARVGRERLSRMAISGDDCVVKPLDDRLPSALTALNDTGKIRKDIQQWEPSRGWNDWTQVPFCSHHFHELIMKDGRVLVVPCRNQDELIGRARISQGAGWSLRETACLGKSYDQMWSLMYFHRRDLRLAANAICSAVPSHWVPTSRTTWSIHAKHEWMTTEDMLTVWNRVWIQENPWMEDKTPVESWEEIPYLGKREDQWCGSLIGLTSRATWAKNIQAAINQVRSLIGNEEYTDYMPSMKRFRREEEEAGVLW
# [10] = Luminescence Cell-Based Dose Confirmation HTS to Identify Inhibitors of Platelet Dense Granule Release. [Related pubchem assays: 1663 (Primary HTS), 1678 (Summary of Project)]; format: functional
# [11] = target: Luciferin 4-monooxygenase (Photinus pyralis, UniProt P08659); test: inhibition of purified Photinus pyralis luciferase – biochemical, luminescence, dose response (AID 1891)
# Chain of Luciferin 4-monooxygenase (P08659 whole entry): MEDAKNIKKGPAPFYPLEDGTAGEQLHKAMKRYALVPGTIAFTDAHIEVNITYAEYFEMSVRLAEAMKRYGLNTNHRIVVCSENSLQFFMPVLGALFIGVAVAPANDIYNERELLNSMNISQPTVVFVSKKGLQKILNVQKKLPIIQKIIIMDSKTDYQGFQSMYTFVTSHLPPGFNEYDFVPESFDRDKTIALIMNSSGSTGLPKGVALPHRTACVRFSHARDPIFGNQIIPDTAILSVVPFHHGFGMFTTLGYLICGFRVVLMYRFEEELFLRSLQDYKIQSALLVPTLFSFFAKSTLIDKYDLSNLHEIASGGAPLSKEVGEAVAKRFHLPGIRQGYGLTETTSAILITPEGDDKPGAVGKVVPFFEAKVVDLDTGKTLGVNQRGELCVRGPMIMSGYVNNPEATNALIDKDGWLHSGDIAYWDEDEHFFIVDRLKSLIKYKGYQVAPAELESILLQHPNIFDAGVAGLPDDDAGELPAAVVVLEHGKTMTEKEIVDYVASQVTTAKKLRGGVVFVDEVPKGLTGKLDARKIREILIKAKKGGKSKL
# [12] = Luminescence Cell-Based Dose Response HTS to Identify Activators of Luciferase Translation or Activity in H4 […] Cells. [Related pubchem assays: 1829 (Project Summary), 1814 (Primary HTS)]; format: functional
# [13] = Luminescence Cell-Based Dose Confirmation HTS to Identify Activators of 5'UTR Stem-Loop Driven Alpha-Synuclein mRNA Translation in H4 Neuroglioblastoma Cells. [Related pubchem assays: 1829 (Project Summary), 1814 (Primary HTS)]; format: functional
# H4 = test: Luminescence Cell-Based Dose Response HTS to Identify Activators of 5'UTR Stem-Loop Driven Prion Protein mRNA Translation in H4 Neuroglioblastoma Cells. [Related pubchem assays: 1829 (Project Summary), 1814 (Primary HTS)]; format: functional; conditions: Homo sapiens
# INS1 = test: INS-1E survival protection against cytokine death – cell-based, luminescence, retest, dose response (AID 449756); format: functional; conditions: Rattus norvegicus;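 note: cell death triggered by IL-1 beta plus TNF-alpha plus IFN-gamma mixture; protective hits raise ATP signal compared with cytokine alone wells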
# [14] = NIH3T3 cell viability loss – ATP luminescence, mouse fibroblasts, counter-screen, dose response (AID 2010); format: functional, cell-based;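 note: cells exposed to compound for about 90 hours before reading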
# [15] = Trypanosoma cruzi growth suppression in host cells – NIH3T3 host cells, beta-gal luminescence, confirmation (AID 2044); format: functional, cell-based;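 note: intracellular parasites grown in NIH/3T3 mouse fibroblasts as host cells; luminescent beta-galactosidase reporter signal from transgenic T. cruzi replicating inside host cells; inhibitors lower the luminescence signal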
# Chain of Cytochrome P450 3A4 (P08684 whole entry): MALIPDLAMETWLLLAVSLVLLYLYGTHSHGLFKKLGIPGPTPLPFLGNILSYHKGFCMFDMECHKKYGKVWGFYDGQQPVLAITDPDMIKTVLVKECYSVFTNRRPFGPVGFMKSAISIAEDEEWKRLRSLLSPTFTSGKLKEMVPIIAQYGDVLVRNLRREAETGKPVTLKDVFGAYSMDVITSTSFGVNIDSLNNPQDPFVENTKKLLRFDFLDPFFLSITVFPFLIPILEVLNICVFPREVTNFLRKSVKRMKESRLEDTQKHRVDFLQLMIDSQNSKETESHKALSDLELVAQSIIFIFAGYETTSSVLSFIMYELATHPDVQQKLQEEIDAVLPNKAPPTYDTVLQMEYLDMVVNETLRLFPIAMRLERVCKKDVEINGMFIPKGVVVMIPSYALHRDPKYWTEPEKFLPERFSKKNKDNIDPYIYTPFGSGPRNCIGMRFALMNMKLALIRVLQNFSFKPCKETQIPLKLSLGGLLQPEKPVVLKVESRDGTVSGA
smiles,measurement,setting,value
O=C1OCc2cc(NC(=O)C34CC5CC(CC(C5)C3)C4)ccc21,EC50,cells [1],> 350 µM (not active)
same,EC50,cells [2],> 350 µM (not active)
O=C(/C=C/c1ccccc1)OC1CC(O)C2(O)C=CO[C@@H](OC3OC(CO)C(O)C(O)C3O)C12 (stereo not given in full),AC50,Cytochrome P450 3A4,3.98 µM (inconclusive)
CCOc1ccc(NC(=O)C2CCN(S(=O)(=O)c3ccc4c(c3)N(C(C)=O)CCO4)CC2)cc1,EC50,cells [1],> 350 µM (not active)
same,EC50,cells [2],> 350 µM (not active)
CC(C)NC(=O)c1cc(C(=O)c2cc(Cl)ccc2O)coc1=N,IC50,Leucine aminopeptidase,2.15 µM (active)
O=C(O)c1ccc(COc2ccc3ccccc3c2/C=C2/NC(=O)N(c3ccccc3)C2=O)cc1,IC50,Leucine aminopeptidase,24.6 µM (active)
COc1ccc2cc3cc(C(=O)N4CCN(c5ccccn5)CC4)oc3nc2c1,EC50,cells [1],> 350 µM (not active)
same,EC50,cells [2],> 350 µM (not active)
CC(C)c1c(O)ccc2c1CCC1C(C)(C)CCC[C@@]21C (stereo not given in full),AC50,Cytochrome P450 3A4,25.1 µM (inconclusive)
CCCCC#CC1C=CC(Oc2cc(OC)c(OC)c(OC)c2)C(CO)O1 (stereo not given),AC50,Cytochrome P450 3A4,5.01 µM (inconclusive)
N#Cc1cccc(NC(=O)CN2NS(=O)(=O)c3ccccc3C2=O)c1,IC50,Leucine aminopeptidase,14.9 µM (active)
Cc1cc(O)c(C(C)(C)C)cc1Sc1cc(C(C)(C)C)c(O)cc1C,AC50,Cytochrome P450 3A4,3.98 µM (inconclusive)
CCNC(=O)NC(=O)C(C)Sc1ccc2c(c1)OCCO2 (stereo not given),IC50,Leucine aminopeptidase,7.93 µM (active)
Fc1ccc(CSc2ccc(-c3ccco3)nn2)cc1,EC50,cells [1],> 350 µM (not active)
same,EC50,cells [2],7.7 µM (active)
CCOc1cc2c(C#N)c(N3CCNCC3)nc(N)c2c(N)n1,IC50,[3],8.23 µM (active)
same,EC50,[4],5.69 µM (active)
same,IC50,[5],> 50 µM (not active)
same,IC50,[6],> 20 µM (inactive)
same,EC50,cells [7],> 29.9 µM (inactive)
same,IC50,cells [8],> 29.9 µM (inactive)
CCC(=O)OCCNc1cc(SCCC(=O)OC)c2nonc2c1[N+](=O)[O-],IC50,[5],> 50 µM (not active)
same,AC50,[9],116 µM (active)
same,EC50,Protein RecA,5.12 µM (active)
same,IC50,H9c2,14.5 µM (active)
O=C(O)CC1S/C(=N/N=C/c2ccc(-c3ccccc3[N+](=O)[O-])o2)NC1=O (stereo not given),IC50,[5],> 50 µM (not active)
same,AC50,[9],12.1 µM (active)
same,EC50,Protein RecA,4.31 µM (active)
same,IC50,Genome polyprotein,89 µM (active)
Cc1cc(O)nc(N=N/C(=N/Nc2ccc(O)cc2)c2ccccc2)n1,EC50,[10],4.42 µM (active)
same,EC50,[11],0.763 µM (active)
same,EC50,cells [1],102 µM (active)
same,EC50,[12],13.1 µM (active)
same,EC50,[13],11.6 µM (active)
same,EC50,cells [2],8.27 µM (active)
same,EC50,H4,16.4 µM (active)
O=C(N/N=C/c1cc([N+](=O)[O-])ccc1O)c1cccc2ccccc12,EC50,cells [1],20.3 µM (active)
same,AC50,INS1,4.2 µM (active)
same,EC50,[14],> 60 µM (not active)
same,EC50,cells [2],> 350 µM (not active)
same,EC50,[15],2.36 µM (active)
S=C=Nc1cccc2ccccc12 [1-NAPHTHYLISOTHIOCYANATE],AC50,Cytochrome P450 3A4,25.1 µM (inconclusive)
"COc1ccc(-c2coc3cc(OC)cc(OC)c3c2=O)cc1 [BIOCHANIN A, DIMETHYL ETHER]",AC50,Cytochrome P450 3A4,20 µM (inconclusive)
C=CCN1CC[C@]23c4c5ccc(O)c4O[C@H]2/C(=N/NC(=O)c2ccccc2)CC[C@@]3(O)[C@H]1C5 [NALOXONE BENZOYLHYDRAZONE],AC50,Cytochrome P450 3A4,15.8 µM (inconclusive)
